Source: patent US12492173B2, “Herbicidal substituted N-tetrazolyl aryl carboxamides” (Bayer Aktiengesellschaft, priority 2019, dated 2025)

Assays:
Assay type in all cases: in vivo
[1] = tested on: Echinochloa crus-galli; experiment: Pre-emergence herbicidal action, ECHCG; design: key to Herbicidal action against ECHCG: % activity: 100 = plants have died, 0 = like control plants; conditions: for herbicidal activity ECHCG: dosage 320 g/ha, scored visually after 3 weeks vs untreated controls (100% = plants have died)
Procedure, shortened: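 Seeds sown in sandy loam in pots and covered with soil; compounds formulated as WP or EC were sprayed onto the soil surface as aqueous suspension/emulsion at 600 to 800 l/ha water with 0.2% wetting agent. Greenhouse growth; visual damage scored after 3 weeks versus untreated controls (100% = plants died, 0% = like control).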

[2] = tested on: Abutilon theophrasti; experiment: Post-emergence herbicidal action, ABUTH; design: key: % herbicidal action vs untreated; 100 = plants died, 0 = like control
Procedure, shortened: (§1)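 Foliar application at the one-leaf stage of greenhouse-grown plants in sandy loam; compound applied as WP or EC in 600–800 l/ha water containing 0.2% wetting agent. Scores are visual percentages (0% like control, 100% plants died) taken after roughly 3 weeks.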

[3] = tested on: Alopecurus myosuroides; experiment: Post-emergence herbicidal action, ALOMY; design: key: % herbicidal action vs untreated; 100 = plants died, 0 = like control
Procedure, shortened: as §1

[4] = tested on: Setaria viridis; experiment: Post-emergence herbicidal action, SETVI; design: key: % herbicidal action vs untreated; 100 = plants died, 0 = like control
Procedure, shortened: as §1

[5] = tested on: Stellaria media; experiment: Post-emergence herbicidal action, STEME; design: key: % herbicidal action vs untreated; 100 = plants died, 0 = like control
Procedure, shortened: as §1

[6] = tested on: Viola tricolor; experiment: Post-emergence herbicidal action, VIOTR; design: key: % herbicidal action vs untreated; 100 = plants died, 0 = like control
Procedure, shortened: as §1

| Structure (SMILES) | herbicidal activity ECHCG [1] | herbicidal action ABUTH ([2]; post-emergence, dosage 80 g/ha) | herbicidal action ALOMY ([3]; post-emergence, dosage 80 g/ha) | herbicidal action SETVI ([4]; post-emergence, dosage 80 g/ha) | herbicidal action STEME ([5]; post-emergence, dosage 80 g/ha) | herbicidal action VIOTR ([6]; post-emergence, dosage 80 g/ha) | herbicidal action ABUTH ([2]; Dosage 80 g/ha) | herbicidal action ALOMY ([3]; Dosage 80 g/ha) | herbicidal action SETVI ([4]; Dosage 80 g/ha) | herbicidal action STEME ([5]; Dosage 80 g/ha) | herbicidal action VIOTR ([6]; Dosage 80 g/ha) | Herbicidal action against ECHCG ([1]; comparative experiment, 20 g of a.i./ha) |
| --- | --- | --- | --- | --- | --- | --- | --- | --- | --- | --- | --- | --- |
| C=CCSCc1c(C(F)(F)F)ccc(C(=O)Nc2nnnn2C)c1Cl [Example 1-308] | 100% | 100% | 100% | 100% | 100% | 90% |  |  |  |  |  |  |
| CCS(=O)(=O)Cc1c(C(F)(F)F)ccc(C(=O)Nc2nnnn2C)c1Cl [Example 1-301] | 100% |  |  |  |  |  | 80 | 80 | 90 | 100 | 100 |  |
| CCCn1nnnc1NC(=O)c1ccc(C(F)(F)F)c(C[S+](C)[O-])c1Cl (stereo not drawn) [Example 3-297] | 100% | 80% | 90% | 80% | 100% | 100% |  |  |  |  |  |  |
| Cn1nnnc1NC(=O)c1ccc(C(F)(F)F)c(C[S+](C)[O-])c1Br (stereo not drawn) [Example 1-381] | 100% | 100% | 80% | 100% | 100% | 100% |  |  |  |  |  | 90 |
| Cc1ccc(C(=O)Nc2nnnn2C)c(Cl)c1CS(C)(=O)=O [Example 1-289] | 90% |  |  |  |  |  |  | 80 | 90 | 100 | 100 |  |
| CCn1nnnc1NC(=O)c1ccc(C(F)(F)F)c(CSC)c1SC [Example 2-161] | 100% | 90% | 80% | 100% | 100% | 100% |  |  |  |  |  |  |
| Cn1nnnc1NC(=O)c1ccc(C(F)(F)F)c(C[S+](C)[O-])c1Cl (racemic) [Example 1-297] | 100% | 80% | 100% | 80% | 100% | 100% |  |  |  |  |  |  |
| CCCn1nnnc1NC(=O)c1ccc(C(F)(F)F)c(C[S+](C)[O-])c1Br (stereo not drawn) [Example 3-381] | 100% | 90% | 80% | 90% | 100% | 100% |  |  |  |  |  |  |
| CCn1nnnc1NC(=O)c1ccc(C(F)F)c(CSC)c1C [Example 2-107] | 100% |  |  |  |  |  | 90 | 80 | 90 | 100 | 100 |  |
| CCCn1nnnc1NC(=O)c1ccc(C(F)(F)F)c(CSC)c1Br [Example 3-380] | 100% |  |  |  |  |  | 80 | 80 | 90 | 100 | 100 |  |
| Cc1c(C(=O)Nc2nnnn2C)ccc(C(F)(F)F)c1C[S+](C)[O-] (stereo not drawn) [Example 1-84] | 100% | 90% | 80% | 100% | 100% | 100% |  |  |  |  |  |  |
| CCn1nnnc1NC(=O)c1ccc(C(F)(F)F)c(CS(C)(=O)=O)c1OC [Example 2-136] | 100% |  |  |  |  |  | 100 |  | 100 | 100 | 100 |  |
| Cc1c(C(=O)Nc2nnnn2C)ccc(C(F)(F)F)c1CS(C)(=O)=O [Example 1-85] | 100% |  |  |  |  |  | 90 |  | 100 | 100 | 100 |  |
| CCSCc1c(C(F)F)ccc(C(=O)Nc2nnnn2C)c1SCC [Example 1-191] | 100% |  |  |  |  |  | 100 | 80 | 100 | 100 | 100 |  |
| CSCc1c(C(F)F)ccc(C(=O)Nc2nnnn2C)c1C [Example 1-107, 4-(difluoromethyl)-2-methyl-3-[(methylsulfanyl)methyl]-N-(1-methyl-1H-tetrazol-5-yl)benzamide] | 100% |  |  |  |  |  | 80 |  | 90 | 100 | 100 |  |
